The subject of assay [1] is mixed inoculum of Staphylococcus aureus ATCC 6538, Pseudomonas aeruginosa ATCC 9027 and Escherichia coli ATCC 8739. The experiment in a line: Challenge test, bacteria, in unpreserved shampoo (Shampoo ULD). To be noted: room temperature, Example 1 at 1% or its components at 0.06% sorbic acid, 0.2% benzyl alcohol, 0.37% 1,2-propanediol, 0.37% 1,4-butanediol.
Procedure: A mixed inoculum containing approximately equal amounts of Staphylococcus aureus ATCC 6538, Pseudomonas aeruginosa ATCC 9027 and Escherichia coli ATCC 8739 was prepared according to the following procedure:
One colony of each bacteria strain was transferred from a stock culture to a tryptic soy agar plate which was incubated for 18-24 h at 37±2° C. Subsequently, some colonies of each of the thus-obtained cultures were transferred to a tryptic soy broth tube which was again incubated for 18-24 h at 37±2° C. to obtain a bacteria subculture, 200 μL of which were added to 2 mL of NaCl-peptone solution in a sterile plastic tube to obtain an inoculum containing approximately 10^9 cfu/mL of the respective bacterium. Finally, the mixed inoculum was prepared by mixing equal volumes of each inoculum.
For comparison purposes, additional 20 g samples were tested using equivalent amounts of each of the components of the preservative composition either alone or in two- or three-component combinations. Each sample was then inoculated with 200 μL of the mixed inoculum obtained in step A) and shaken vigorously to obtain a homogeneous contamination. The samples were then stored at room temperature and the bacteria count was determined in intervals of 7 days by taking 200 μL samples, mixing each of them with 1.8 mL of inactivation medium, and homogeneously plating 100 μL of the resulting mixtures on the surface of agar plates which were incubated for 2-3 days at 37±2° C. After the incubation period the colonies formed on the agar plates were counted and the results translated into cfu/mL. If necessary, serial dilutions in NaCl-peptone were prepared to cope with high bacteria counts.
Assay [2] relates to mixed inoculum of Candida albicans ATCC 10231 and Aspergillus niger ATCC 16404. The experiment in a line: Challenge test, fungi, in unpreserved shampoo pH 5.5 (Table 2). The note with it: shampoo of Table 2, pH 5.5, Example 1 at 1% or its components at 0.06% sorbic acid, 0.2% benzyl alcohol, 0.37% 1,2-propanediol, 0.37% 1,4-butanediol.

Regarding `C/C=C/C=C/C(=O)O` [Sorbic Acid], the “Mixed Bacteria Germ Count, 7 days” value in assay [1] (7 days) was >10^4 cfu/g. The “Mixed Bacteria Germ Count, 14 days” value in assay [1] (14 days) is reported as >10^3 cfu/g. In addition, the “Mixed Bacteria Germ Count, 21 days” value in assay [1] (21 days) is on record as 6.7 × 10^2 cfu/g. Further, the “Mixed Bacteria Germ Count, 28 days” value in assay [1] (28 days) is listed as 2.0 × 10^1 cfu/g. The “Mixed Fungi Germ Count, 7 days” value in assay [2] (7 days) is on record as >10^5 cfu/g. In addition, the “Mixed Fungi Germ Count, 14 days” value in assay [2] (14 days) is recorded as >10^4 cfu/g. Moreover, the “Mixed Fungi Germ Count, 21 days” value in assay [2] (21 days) is reported as >10^5 cfu/g. The “Mixed Fungi Germ Count, 28 days” value in assay [2] (28 days) is reported as >10^3 cfu/g.
